The results in this text go back to patent US9938260B2, “Soluble guanylate cyclase activators and their use” (GlaxoSmithKline Intellectual Property Development Limited, priority 2014, dated 2018).

Structures can show the parent of a compound that is named as a salt.

The test has as its target T1, soluble guanylate cyclase (sGC) (Rattus norvegicus, UniProt P20595).
T1 construct: endogenous in cells; host or cells: primary rat aortic smooth muscle cells
T1 sequence (P20595 1-619): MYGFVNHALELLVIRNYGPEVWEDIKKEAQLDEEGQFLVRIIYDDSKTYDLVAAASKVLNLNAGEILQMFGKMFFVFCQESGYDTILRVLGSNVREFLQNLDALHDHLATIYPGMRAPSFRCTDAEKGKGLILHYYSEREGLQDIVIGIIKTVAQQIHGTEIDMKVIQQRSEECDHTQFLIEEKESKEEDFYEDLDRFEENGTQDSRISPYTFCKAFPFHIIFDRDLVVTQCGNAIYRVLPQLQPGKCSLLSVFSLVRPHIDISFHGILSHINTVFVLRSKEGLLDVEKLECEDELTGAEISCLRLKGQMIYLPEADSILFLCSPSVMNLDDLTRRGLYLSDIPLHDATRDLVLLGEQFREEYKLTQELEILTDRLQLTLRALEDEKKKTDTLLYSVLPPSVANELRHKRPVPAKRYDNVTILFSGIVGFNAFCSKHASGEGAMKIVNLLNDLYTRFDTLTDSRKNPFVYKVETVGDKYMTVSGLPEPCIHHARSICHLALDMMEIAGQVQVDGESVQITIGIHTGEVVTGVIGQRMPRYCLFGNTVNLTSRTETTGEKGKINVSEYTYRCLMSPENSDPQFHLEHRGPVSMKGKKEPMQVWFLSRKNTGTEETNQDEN
T1 sequence (P19686 1-690 partner): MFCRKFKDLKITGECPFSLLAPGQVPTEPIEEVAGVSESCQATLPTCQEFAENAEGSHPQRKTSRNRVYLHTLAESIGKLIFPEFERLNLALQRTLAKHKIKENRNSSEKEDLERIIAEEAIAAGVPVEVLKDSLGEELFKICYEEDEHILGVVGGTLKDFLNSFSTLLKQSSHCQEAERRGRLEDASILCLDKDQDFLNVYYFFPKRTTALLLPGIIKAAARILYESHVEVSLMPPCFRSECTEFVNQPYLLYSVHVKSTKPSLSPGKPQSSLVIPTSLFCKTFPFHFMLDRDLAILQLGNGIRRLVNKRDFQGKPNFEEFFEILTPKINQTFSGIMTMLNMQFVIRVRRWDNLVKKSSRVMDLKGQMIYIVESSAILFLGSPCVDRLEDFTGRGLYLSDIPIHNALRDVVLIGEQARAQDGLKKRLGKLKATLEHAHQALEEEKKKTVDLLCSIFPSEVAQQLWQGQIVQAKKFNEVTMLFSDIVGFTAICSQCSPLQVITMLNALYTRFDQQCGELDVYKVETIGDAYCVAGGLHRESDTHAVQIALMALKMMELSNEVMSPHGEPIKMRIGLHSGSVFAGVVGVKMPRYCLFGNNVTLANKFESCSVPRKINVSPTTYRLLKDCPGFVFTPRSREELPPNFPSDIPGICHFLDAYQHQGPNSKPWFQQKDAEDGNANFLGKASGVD
Put plainly: Biological cellular assay: sGC activity by phosphorylation of VASP in rat aortic smooth muscle cells. The settings on record: primary rat aortic smooth muscle cells, pre-incubated with 10 μM ODQ, 30 min at 37° C., phospho-VASP (pSer239) fluorescent signal; read-out: Cell assay pEC50 (converted). The format is cell-based. The method, then:
The activity of soluble guanylate cyclase (sGC) was tested in an assay based on measuring phosphorylation of the protein kinase G (PKG) substrate vasodilator-stimulated phosphoprotein (VASP) in rat aortic smooth muscle cells. […] Dimethylsulfoxide (DMSO) vehicle and varying concentrations of the compound to be tested were then added. Following a 30 min incubation at 37° C., media was aspirated and the cells were rinsed with phosphate-buffered saline (PBS) and fixed with 4% formaldehyde in PBS by incubating at room temperature for 20 min. Cells were then washed with PBS and permeabilized for 10 min using 0.1% triton X-100 in PBS. Following PBS rinsing, the cells were blocked for 90 min at room temperature with blocking buffer. The buffer was aspirated and the cells were treated overnight at 4° C. with primary antibody (pSer239-VASP, rabbit polyclonal Ab) diluted 1:500 in blocking buffer. Following three washes with 0.05% Tween 20, the cells were treated for 1 h at room temperature with a fluorescent labeled secondary antibody (IRDye® 800CW Donkey Anti-Rabbit IgG) diluted 1:2500 in blocking buffer with 0.05% Tween 20. Following two washes with PBS, infrared fluorescence was measured using an Odyssey Infrared Imaging System. The activity of a test compound was determined as the pEC50 value which is the concentration able to increase by 50% (vs. Bmax) the phospho-VASP fluorescent signal. Front. Pharmacol., 5 Jul. 2012|doi: 10.3389/fphar.2012.00128, Volume 3 July, 2012, Article number 128.
As to `CCOC(=O)C1CCN(c2cccc(-c3cc(F)cc(F)c3OCc3ccc(C4CCN(CC#N)CC4)cc3C)n2)CC1` [Example 1, ethyl 1-(6-(2-((4-(1-(cyanomethyl)piperidin-4-yl)-2-methylbenzyl)oxy)-3,5-difluorophenyl)pyridin-2-yl)piperidine-4-carboxylate], the EC50 was 0.000631 µM. With `Cc1cc(C2CCN(CC(F)(F)F)CC2)ccc1COc1c(F)cc(F)cc1-c1cccc(N2CCC(C(=O)O)CC2)n1` [Example 5, 1-(6-(3,5-difluoro-2-((2-methyl-4-(1-(2,2,2-trifluoroethyl)piperidin-4-yl)benzyl)oxy)phenyl)pyridin-2yl)piperidine-4-carboxylic acid] the figure was 0.000501 µM.

For `Cc1cc(C2CCN(C(=O)C3COC3)CC2)ccc1COc1c(F)cc(F)cc1-c1cccc(N2CCC(C(=O)O)CC2)n1` [Example 6, 1-(6-(3,5-difluoro-2-((2-methyl-4-(1-(oxetane-3-carbonyl)piperidin-4-yl)benzyl)oxy)phenyl)pyridin-2yl)piperidine-4-carboxylic acid], the EC50 is 0.0001 µM. On to `Cc1cc(C2CCN(CC(F)(F)F)CC2)ncc1COc1c(F)cc(F)cc1-c1cccc(N2CCC(C(=O)O)CC2)n1` [Example 9, 1-(6-(3,5-difluoro-2-((4-methyl-6-(1-(2,2,2-trifluoroethyl)piperidin-4-yl)pyridin-3-yl)methoxy)phenyl)pyridin-2-yl)piperidine-4-carboxylic acid, sodium salt], for which the EC50 was 0.01 µM. With `Cc1nc(C2CCN(CC(F)(F)F)CC2)ccc1COc1c(F)cc(F)cc1-c1cccc(N2CCC(C(=O)O)CC2)n1` [Example 14, 1-(6-(3,5-difluoro-2-((2-methyl-6-(1-(2,2,2-trifluoroethyl)piperidin-4-yl)pyridin-3-yl)methoxy)phenyl)pyridin-2-yl)piperidine-4-carboxylic acid] the figure was 0.01 µM; with `Cc1nc(C2CCN(C3COC3)CC2)ccc1COc1c(F)cc(F)cc1-c1cccc(N2CCC(C(=O)O)CC2)n1` [Example 17, 1-(6-(3,5-difluoro-2-((2-methyl-6-(1-(oxetan-3-yl)piperidin-4-yl)pyridin-3-yl)methoxy)phenyl)pyridin-2-yl)piperidine-4-carboxylic acid], 0.0794 µM; with `Cc1nc(C2CCN(C3CCOC3)CC2)ccc1COc1c(F)cc(F)cc1-c1cccc(N2CCC(C(=O)O)CC2)n1` (stereo not drawn) [Example 20, 1-(6-(3,5-difluoro-2-((2-methyl-6-(1-(tetrahydrofuran-3-yl)piperidin-4-yl)pyridin-3-yl)methoxy)phenyl)pyridin-2-yl)piperidine-4-carboxylic acid], 0.158 µM.

For `Cc1nc(C2CCN(CC3CCOC3)CC2)ccc1COc1c(F)cc(F)cc1-c1cccc(N2CCC(C(=O)O)CC2)n1` (stereo not drawn) [Example 23, 1-(6-(3,5-difluoro-2-((2-methyl-6-(1-((tetrahydrofuran-3-yl)methyl)piperidin-4-yl)pyridin-3-yl)methoxy)phenyl)pyridin-2-yl)piperidine-4-carboxylic acid], the EC50 was 0.251 µM. With `Cc1nc(C2CCN(CC#N)CC2)ccc1COc1c(F)cc(F)cc1-c1cccc(N2CCC(C(=O)O)CC2)n1` [Example 27, 1-(6-(2-((6-(1-(cyanomethyl)piperidin-4-yl)-2-methylpyridin-3-yl)methoxy)-3,5-difluorophenyl)pyridin-2-yl)piperidine-4-carboxylic acid, Sodium salt] the figure was 0.0398 µM. As for `Cc1nc(C2CCN(C(=O)C3COC3)CC2)ccc1COc1c(F)cc(F)cc1-c1cccc(N2CCC(C(=O)O)CC2)n1` [Example 30, 1-(6-(3,5-difluoro-2-((2-methyl-6-(1-(oxetane-3-carbonyl)piperidin-4-yl)pyridin-3-yl)methoxy)phenyl)pyridin-2-yl)piperidine-4-carboxylic acid, Sodium salt,], the EC50 was 0.02 µM.

`Cc1nc(C2CCN(C(=O)CO)CC2)ccc1COc1c(F)cc(F)cc1-c1cccc(N2CCC(C(=O)O)CC2)n1` [Example 33, 1-(6-(3,5-difluoro-2-((6-(1-(2-hydroxyacetyl)piperidin-4-yl)-2-methylpyridin-3-yl)methoxy)phenyl)pyridin-2-yl)piperidine-4-carboxylic acid, Sodium salt]: the EC50 is 0.0158 µM. For `Cc1cc(C2CCN(C3COC3)CC2)ccc1COc1c(Cl)cccc1-c1cccc(N2CCC(C(=O)O)CC2)n1` [Example 36, 1-(6-(3-chloro-2-((2-methyl-4-(1-(oxetan-3-yl)piperidin-4-yl)benzyl)oxy)phenyl)pyridin-2-yl)piperidine-4-carboxylic acid, Sodium salt], the EC50 was 0.01 µM. Turning to `Cc1cc(C2CCN(C3COC3)CC2)ccc1COc1c(F)cc(F)cc1-c1cccc(N2CCC(C(=O)O)CC2)n1` [Example 39, 1-(6-(3,5-difluoro-2-((2-methyl-4-(1-(oxetan-3-yl)piperidin-4-yl)benzyl)oxy)phenyl)pyridin-2-yl)piperidine-4-carboxylic acid, Sodium salt], the EC50 was 0.000794 µM. As for `Cc1cc(C2CCN(C3CCOC3)CC2)ccc1COc1c(F)cc(F)cc1-c1cccc(N2CCC(C(=O)O)CC2)n1` (stereo not drawn) [Example 42, 1-(6-(3,5-difluoro-2-((2-methyl-4-(1-(tetrahydrofuran-3-yl)piperidin-4-yl)benzyl)oxy)phenyl)pyridin-2-yl)piperidine-4-carboxylic acid, Sodium salt], the EC50 was 0.00251 µM.

On to `Cc1cc(C2CCN(C3CC3)CC2)ccc1COc1c(F)cc(F)cc1-c1cccc(N2CCC(C(=O)O)CC2)n1` [Example 45, 1-(6-(2-((4-(1-cyclopropylpiperidin-4-yl)-2-methylbenzyl)oxy)-3,5-difluorophenyl)pyridin-2-yl)piperidine-4-carboxylic acid, Sodium salt], for which the EC50 is 0.00316 µM. For `COCCN1CCC(c2ccc(COc3c(F)cc(F)cc3-c3cccc(N4CCC(C(=O)O)CC4)n3)c(C)c2)CC1` [Example 48, 1-(6-(3,5-difluoro-2-((4-(1-(2-methoxyethyl)piperidin-4-yl)-2-methylbenzyl)oxy)phenyl)pyridin-2-yl)piperidine-4-carboxylic acid, Sodium salt] the value was 0.0158 µM; for `Cc1cc(C2CCN(CCO)CC2)ccc1COc1c(F)cc(F)cc1-c1cccc(N2CCC(C(=O)O)CC2)n1` [Example 51, 1-(6-(3,5-difluoro-2-((4-(1-(2-hydroxyethyl)piperidin-4-yl)-2-methylbenzyl)oxy)phenyl)pyridin-2-yl)piperidine-4-carboxylic acid, Sodium salt], 0.0316 µM; for `Cc1cc(C2CCN(CCC(F)(F)F)CC2)ccc1COc1c(F)cc(F)cc1-c1cccc(N2CCC(C(=O)O)CC2)n1` [Example 54, 1-(6-(3,5-difluoro-2-((2-methyl-4-(1-(3,3,3-trifluoropropyl)piperidin-4-yl)benzyl)oxy)phenyl)pyridin-2-yl)piperidine-4-carboxylic acid, Sodium salt], 0.00251 µM.
